Where a SMILES comes first, the peptide text is derived from it. Bridges are numbered along the chain shown (N, C = ends). [ ]: non-standard residue; d: D form. NMeL = CN[C@@H](CC(C)C)C(=O)O; αMeL = CC(C)C[C@](C)(N)C(=O)O
Columns and labels:
human Nav1.7 = human Nav1.7 (Homo sapiens, UniProt Q15858); assay: cell-based; format: cell-based
Nav1.2 (rBIIa) = format: cell-based, rat

human Nav1.7, sequence (Q15858 other isoform, or with tags, fused parts or gaps): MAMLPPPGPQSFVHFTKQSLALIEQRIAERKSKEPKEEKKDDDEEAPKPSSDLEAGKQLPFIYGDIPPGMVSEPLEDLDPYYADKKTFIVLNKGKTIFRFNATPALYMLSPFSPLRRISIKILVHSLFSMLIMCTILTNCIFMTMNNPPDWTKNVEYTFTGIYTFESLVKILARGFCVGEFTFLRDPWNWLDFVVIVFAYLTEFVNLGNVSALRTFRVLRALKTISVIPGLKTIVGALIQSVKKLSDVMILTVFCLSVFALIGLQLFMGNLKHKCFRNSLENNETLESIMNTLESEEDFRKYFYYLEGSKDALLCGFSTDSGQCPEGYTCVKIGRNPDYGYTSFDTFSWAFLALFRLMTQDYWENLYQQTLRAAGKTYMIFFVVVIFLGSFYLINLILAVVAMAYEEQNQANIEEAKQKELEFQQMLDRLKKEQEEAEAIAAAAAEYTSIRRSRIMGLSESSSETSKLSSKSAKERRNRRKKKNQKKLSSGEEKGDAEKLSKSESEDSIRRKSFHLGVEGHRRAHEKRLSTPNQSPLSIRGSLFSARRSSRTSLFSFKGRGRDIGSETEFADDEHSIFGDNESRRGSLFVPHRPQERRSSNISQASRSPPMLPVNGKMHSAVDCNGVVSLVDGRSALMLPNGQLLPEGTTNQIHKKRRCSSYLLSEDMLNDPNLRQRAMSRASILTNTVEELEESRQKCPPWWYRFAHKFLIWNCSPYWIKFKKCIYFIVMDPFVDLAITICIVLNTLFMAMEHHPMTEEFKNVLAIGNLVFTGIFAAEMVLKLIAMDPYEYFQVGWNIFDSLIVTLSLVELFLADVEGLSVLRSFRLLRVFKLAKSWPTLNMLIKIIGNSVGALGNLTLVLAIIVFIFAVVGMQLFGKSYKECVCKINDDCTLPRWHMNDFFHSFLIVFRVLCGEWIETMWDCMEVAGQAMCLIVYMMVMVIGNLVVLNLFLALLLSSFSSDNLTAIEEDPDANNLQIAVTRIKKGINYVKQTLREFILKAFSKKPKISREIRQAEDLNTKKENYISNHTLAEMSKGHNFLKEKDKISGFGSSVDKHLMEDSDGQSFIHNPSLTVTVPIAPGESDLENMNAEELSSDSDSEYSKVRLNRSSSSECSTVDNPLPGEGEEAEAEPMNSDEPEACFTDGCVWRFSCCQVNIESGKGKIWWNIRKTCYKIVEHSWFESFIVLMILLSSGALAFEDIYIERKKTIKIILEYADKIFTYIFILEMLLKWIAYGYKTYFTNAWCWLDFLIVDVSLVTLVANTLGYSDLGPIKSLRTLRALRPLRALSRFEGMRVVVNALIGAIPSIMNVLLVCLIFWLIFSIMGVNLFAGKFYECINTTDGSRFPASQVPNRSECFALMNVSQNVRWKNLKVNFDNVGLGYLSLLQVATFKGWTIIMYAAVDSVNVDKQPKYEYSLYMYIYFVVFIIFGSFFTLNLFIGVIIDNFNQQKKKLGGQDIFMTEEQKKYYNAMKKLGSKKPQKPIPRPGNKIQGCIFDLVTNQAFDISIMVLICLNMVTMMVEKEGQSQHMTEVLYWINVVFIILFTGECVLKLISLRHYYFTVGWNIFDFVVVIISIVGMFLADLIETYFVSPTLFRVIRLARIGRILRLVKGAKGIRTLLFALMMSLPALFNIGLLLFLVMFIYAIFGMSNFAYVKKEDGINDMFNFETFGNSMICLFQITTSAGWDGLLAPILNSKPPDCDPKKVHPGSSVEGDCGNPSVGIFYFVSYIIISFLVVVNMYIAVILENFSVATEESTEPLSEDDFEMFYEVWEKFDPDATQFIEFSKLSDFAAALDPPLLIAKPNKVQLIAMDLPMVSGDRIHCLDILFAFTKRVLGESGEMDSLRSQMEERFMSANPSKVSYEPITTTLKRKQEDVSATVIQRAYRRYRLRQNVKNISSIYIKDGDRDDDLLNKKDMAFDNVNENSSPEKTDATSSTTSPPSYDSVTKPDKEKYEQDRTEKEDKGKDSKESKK

SMILES | IC50 (human Nav1.7) | IC50 (Nav1.2 (rBIIa))
CC[C@H](C)[C@H](NC(=O)[C@](C)(CC(C)C)NC(=O)[C@H](CCCCN)NC(=O)[C@H](CCCCN)NC(=O)[C@H](CCCCN)NC(=O)[C@@H]1CSSC[C@@H]2NC(=O)[C@H](CCCCN)NC(=O)[C@H](CCCNC(=N)N)NC(=O)[C@H](C)NC(=O)[C@H](CO)NC(=O)[C@H](CC(=O)O)NC(=O)[C@@H]3CSSC[C@H](NC(=O)[C@H](C(C)C)NC(=O)[C@H](CC(C)C)NC(=O)CNC(=O)[C@H](CCC(=O)O)NC(=O)[C@H](CSSC[C@H](NC(=O)[C@@H](N)Cc4ccc(O)cc4)C(=O)N[C@@H](CCC(N)=O)C(=O)N[C@@H](CCCCN)C(=O)N[C@@H](Cc4c[nH]c5ccccc45)C(=O)N[C@@H](CCSC)C(=O)N[C@@H](Cc4c[nH]c5ccccc45)C(=O)N[C@@H]([C@@H](C)O)C(=O)N3)NC2=O)C(=O)N[C@@H](CCCNC(=N)N)C(=O)N[C@@H](CC(C)C)C(=O)N[C@@H](Cc2c[nH]c3ccccc23)C(=O)N1)C(=O)O [compound 11] (H-YCQKWMWTCDSARKCCEGLVCRLWCKKK[αMeL]I-OH; disulfide 2-16, 9-21, 15-25) | 10 ± 1 nM | 342 ± 73 nM
CC[C@H](C)[C@H](NC(=O)[C@H](CC(C)C)N(C)C(=O)[C@H](CCCCN)NC(=O)[C@H](CCCCN)NC(=O)[C@H](CCCCN)NC(=O)[C@@H]1CSSC[C@@H]2NC(=O)[C@H](CCCCN)NC(=O)[C@H](CCCNC(=N)N)NC(=O)[C@H](C)NC(=O)[C@H](CO)NC(=O)[C@H](CC(=O)O)NC(=O)[C@@H]3CSSC[C@H](NC(=O)[C@H](C(C)C)NC(=O)[C@H](CC(C)C)NC(=O)CNC(=O)[C@H](CCC(=O)O)NC(=O)[C@H](CSSC[C@H](NC(=O)[C@@H](N)Cc4ccc(O)cc4)C(=O)N[C@@H](CCC(N)=O)C(=O)N[C@@H](CCCCN)C(=O)N[C@@H](Cc4c[nH]c5ccccc45)C(=O)N[C@@H](CCSC)C(=O)N[C@@H](Cc4c[nH]c5ccccc45)C(=O)N[C@@H]([C@@H](C)O)C(=O)N3)NC2=O)C(=O)N[C@@H](CCCNC(=N)N)C(=O)N[C@@H](CC(C)C)C(=O)N[C@@H](Cc2c[nH]c3ccccc23)C(=O)N1)C(=O)O [compound 12] (H-YCQKWMWTCDSARKCCEGLVCRLWCKKK[NMeL]I-OH; disulfide 2-16, 9-21, 15-25) | 528 ± 100 nM | 138 ± 40 nM
CC[C@H](C)[C@H](NC(=O)[C@H](CCCCN)NC(=O)[C@H](CCCCN)NC(=O)[C@@H]1CSSC[C@@H]2NC(=O)[C@H](CCCCN)NC(=O)[C@H](CCCNC(=N)N)NC(=O)[C@H](C)NC(=O)[C@H](CO)NC(=O)[C@H](CC(=O)O)NC(=O)[C@@H]3CSSC[C@H](NC(=O)[C@H](C(C)C)NC(=O)[C@H](CC(C)C)NC(=O)CNC(=O)[C@H](CCC(=O)O)NC(=O)[C@H](CSSC[C@H](NC(=O)[C@@H](N)Cc4ccc(O)cc4)C(=O)N[C@@H](CCC(N)=O)C(=O)N[C@@H](CCCCN)C(=O)N[C@@H](Cc4c[nH]c5ccccc45)C(=O)N[C@@H](CCSC)C(=O)N[C@@H](Cc4c[nH]c5ccccc45)C(=O)N[C@@H]([C@@H](C)O)C(=O)N3)NC2=O)C(=O)N[C@@H](CCCNC(=N)N)C(=O)N[C@@H](CC(C)C)C(=O)N[C@@H](Cc2c[nH]c3ccccc23)C(=O)N1)C(=O)N[C@@H](CC(C)C)C(=O)N[C@@H](Cc1c[nH]c2ccccc12)C(=O)O [compound 13] (H-YCQKWMWTCDSARKCCEGLVCRLWCKKILW-OH; disulfide 2-16, 9-21, 15-25) | 3 nM | 50 ± 10 nM
CC[C@H](C)[C@H](NC(=O)[C@H](CCCCN)NC(=O)[C@H](CCCCN)NC(=O)[C@@H]1CSSC[C@@H]2NC(=O)[C@H](CCCCN)NC(=O)[C@H](CCCNC(=N)N)NC(=O)[C@H](C)NC(=O)[C@H](CO)NC(=O)[C@H](CC(=O)O)NC(=O)[C@@H]3CSSC[C@H](NC(=O)[C@H](C(C)C)NC(=O)[C@H](CC(C)C)NC(=O)CNC(=O)[C@H](CCC(=O)O)NC(=O)[C@H](CSSC[C@H](NC(=O)[C@@H](N)Cc4ccc(O)cc4)C(=O)N[C@@H](CCC(N)=O)C(=O)N[C@@H](CCCCN)C(=O)N[C@@H](Cc4c[nH]c5ccccc45)C(=O)N[C@@H](CCSC)C(=O)N[C@@H](Cc4c[nH]c5ccccc45)C(=O)N[C@@H]([C@@H](C)O)C(=O)N3)NC2=O)C(=O)N[C@@H](CCCNC(=N)N)C(=O)N[C@@H](CC(C)C)C(=O)N[C@@H](Cc2c[nH]c3ccccc23)C(=O)N1)C(=O)N[C@H](C(=O)N[C@@H](Cc1c[nH]c2ccccc12)C(=O)O)[C@@H](C)CC [compound 14] (H-YCQKWMWTCDSARKCCEGLVCRLWCKKIIW-OH; disulfide 2-16, 9-21, 15-25) | 5 ± 1 nM | 45 nM

— patent US9279003B2, “Analogs of sodium channel peptide toxin” (priority 2010, dated 2016)
